How the values were obtained:
Type in all cases: cell-based
[1] = tested on: STT3A (HEK293 STT3B KO cells); assay: Western blots of protein glycoforms, HEK293 cells with knockout of STT3B; settings: 24 hrs, Western blot, FIG. 2, indicating enhanced specificity for STT3A
Protocol: FIG. 2 illustrates Western blots of protein glycoforms after OST inhibitor treatment in vitro using HEK293 cells with knockout (KO) of either STT3A or STT3B. Cells were treated with each inhibitor for 24 hrs at indicated concentrations. Changes in glycosylation are shown by reduced molecular weight.
(§1) Inhibition of glycosylation is then confirmed by analysis of glycoprotein size using western blots. Increased gel mobility of proteins such as the EGFR or Halo3N indicate loss of protein glycosylation (FIGS. 1-2).

[2] = tested on: N-linked glycosylation (OST) in CHO-ER-LucT cells; assay: CHO-ER-LucT luminescence assay for inhibition of N-linked glycosylation; settings: for Emax: 24 h, [compound's fold change-1.0 (DMSO)]/[NGI-1 fold change-1.0 (DMSO)]*100, read-out: Max activity (% NGI-1); for AC50: CHO-ER-LucT cells, 24 hrs exposure, seven-point dose dilution, luminescence
Protocol: The CHO-ER-LucT cells have been previously described (Contessa et al., 2010, Clinical Cancer Research, 16(12):3205-14) and are used for testing analog IC50 for inhibition of N-linked glycosylation in 96 or 384 well plate format. In these cells induction of luminescence is dependent on inhibition of glycosylation (and OST inhibition), and is determined after 24 hrs of exposure to the analog following the addition of luciferin substrate. The luminescent signal is then quantified using standard plate readers that detect luminescence (e.g., Biotek synergy). Experiments are performed over a seven-point dose dilution to generate dose response data and to identify IC50 values and maximal activity compared to controls. Data is transformed to log 10 values to generate a sigmoidal shaped dose response curve and fitted using nonlinear regression (curve fit) in GraphPad Prism7.
All HL compounds were tested in CHO-ER-LucT cells. IC50 (AC50) was estimated in following method: Concentration X is converted to logarithm (log10) to generate sigmoidal shape curve and dose response curve is generated using Nonlinear regression (curve fit) in Prism. EC50 (AC50) is calculated using log(agonist) vs response-(three parameters)] which uses standard Hill slope (=1).
Max activity: [compound's fold change−1.0 (DMSO)]/[NGI−1 fold change−1.0 (DMSO)]*100(%) (Eq. 1)

[3] = tested on: protein glycosylation in HEK293 cells; assay: Western blots of protein glycoforms after OST inhibitor treatment, HEK293 cells; settings: 24 hrs, Western blot, FIG. 1
Protocol: FIG. 1 illustrates Western blots of protein glycoforms after OST inhibitor treatment in vitro. HEK293 cells were treated with each inhibitor for 24 hrs at indicated concentrations. Changes in glycosylation are shown by reduced molecular weight.
as §1

[4] = tested on: N-linked glycosylation in D54; assay: ER-LucT type AC50 determination in D54 cells (NGI-1 only); settings: Homo sapiens

SMILES	Effect on glycosylation in STT3B KO cells [1]	Emax [2] [%]	AC50 [2] [nM]	Changes in glycosylation (reduced molecular weight of protein glycoforms) [3]	AC50 [4] [nM]
CCc1cnc(NC(=O)c2cc(S(=O)(=O)N3CCOCC3)ccc2N(C)CC2CC2)s1 [Example 3, 2-((cyclopropylmethyl)(methyl)amino)-N-(5-ethylthiazol-2-yl)-5-(morpholinosulfonyl)benzamide]	more potent effect	215	59	more potent effect	
CCc1cnc(NC(=O)c2cc(S(=O)(=O)N3CCOCC3)ccc2N(C)C2CCCC2)s1 [Example 4, 2-(cyclopentyl(methyl)amino)-N-(5-ethylthiazol-2-yl)-5-(morpholinosulfonyl)benzamide]	more potent effect	206	87	more potent effect	
CCc1csc(NC(=O)c2cc(S(=O)(=O)N3CCOCC3)ccc2N(C)CC2CC2)n1 [Example 20, 2-((cyclopropylmethyl)(methyl)amino)-N-(4-ethylthiazol-2-yl)-5-(morpholinosulfonyl)benzamide]		94.2	548		
Cc1nc(NC(=O)c2cc(S(=O)(=O)N(C)C)cnc2N(C)C2CCCC2)sc1C [Example 21, 2-(cyclopentyl(methyl)amino)-5-(N,N-dimethylsulfamoyl)-N-(4,5-dimethylthiazol-2-yl)nicotinamide]		101	970		
CCc1cnc(NC(=O)c2cc(S(=O)(=O)N(C)C)cnc2N(C)CC2CC2)s1 [Example 22, 2-((cyclopropylmethyl)(methyl)amino)-5-(N,N-dimethylsulfamoyl)-N-(5-ethylthiazol-2-yl)nicotinamide]		126	572		
Cc1nc(NC(=O)c2cc(S(=O)(=O)N(C)C)cnc2N(C)CC2CC2)sc1C [Example 23, 2-((cyclopropylmethyl)(methyl)amino)-5-(N,N-dimethylsulfamoyl)-N-(4,5-dimethylthiazol-2-yl)nicotinamide]		59	863		
CN(CC1CC1)c1ncc(S(=O)(=O)N(C)C)cc1C(=O)Nc1nc2c(s1)COCC2 [Example 24, 2-((cyclopropylmethyl)(methyl)amino)-N-(6,7-dihydro-4H-pyrano[4,3-d]thiazol-2-yl)-5-(N,N-dimethylsulfamoyl)nicotinamide]		43	17300		
CCc1cnc(NC(=O)c2cc(S(=O)(=O)N(C)C)cnc2N(C)C2CCCC2)s1 [Example 25, 2-(cyclopentyl(methyl)amino)-5-(N,N-dimethylsulfamoyl)-N-(5-ethylthiazol-2-yl)nicotinamide]		108	309		
CCc1cnc(NC(=O)c2cc(S(=O)(=O)N3CCOCC3)cnc2N(C)CC2CC2)s1 [Example 26, 2-((cyclopropylmethyl)(methyl)amino)-N-(5-ethylthiazol-2-yl)-5-(morpholinosulfonyl)nicotinamide]		104	851		
CCc1cnc(NC(=O)c2cc(S(=O)(=O)N3CCOCC3)nnc2N(C)CC2CC2)s1 [Example 27, 3-((cyclopropylmethyl)(methyl)amino)-N-(5-ethylthiazol-2-yl)-6-(morpholinosulfonyl)pyridazine-4-carboxamide]		13.3	115		
CCc1cnc(NC(=O)c2nc(S(=O)(=O)N3CCOCC3)ccc2N(C)CC2CC2)s1 [Example 28, 3-((cyclopropylmethyl)(methyl)amino)-N-(5-ethylthiazol-2-yl)-6-(morpholinosulfonyl)picolinamide]		33.3	7920		
Cc1nc(NC(=O)c2cc(S(=O)(=O)N(C)C)cc(F)c2N2CCCC2)sc1C [Example 29, 5-(N,N-dimethylsulfamoyl)-N-(4,5-dimethylthiazol-2-yl)-3-fluoro-2-(pyrrolidin-1-yl)benzamide]		62.6	4990		
CCc1cnc(NC(=O)c2cc(S(=O)(=O)N3CCOCC3)c(F)cc2N(C)CC2CC2)s1 [Example 30, 2-((cyclopropylmethyl)(methyl)amino)-N-(5-ethylthiazol-2-yl)-4-fluoro-5-(morpholinosulfonyl)benzamide]		96.4	371		
Cc1nc(NC(=O)c2cc(S(=O)(=O)N3CCOCC3)c(F)cc2N(C)CC2CC2)sc1C [Example 31, 2-((cyclopropylmethyl)(methyl)amino)-N-(4,5-dimethylthiazol-2-yl)-4-fluoro-5-(morpholinosulfonyl)benzamide]		61.2	431		
Cc1nc(NC(=O)c2cc(S(=O)(=O)N(C)C)c(F)cc2N2CCCC2)sc1C [Example 32, 5-(N,N-dimethylsulfamoyl)-N-(4,5-dimethylthiazol-2-yl)-4-fluoro-2-(pyrrolidin-1-yl)benzamide]		52.6	3840		
Cc1ccc(NC(=O)c2cc(S(=O)(=O)N(C)C)ccc2N2CCC(F)(F)C2)cc1 [Example 33, 2-(3,3-difluoropyrrolidin-1-yl)-5-(N,N-dimethylsulfamoyl)-N-(p-tolyl)benzamide]		67.5	5840		
Cc1nc(NC(=O)c2cc(S(=O)(=O)N(C)C)ccc2N2CCC(F)(F)C2)sc1C [Example 34, 2-(3,3-difluoropyrrolidin-1-yl)-5-(N,N-dimethylsulfamoyl)-N-(4,5-dimethylthiazol-2-yl)benzamide]		76.9	738		
Cc1csc(NC(=O)c2cc(S(=O)(=O)N(C)C)ccc2N2CCC(F)(F)C2)n1 [Example 35, 2-(3,3-difluoropyrrolidin-1-yl)-5-(N,N-dimethylsulfamoyl)-N-(4-methylthiazol-2-yl)benzamide]		70	3000		
CCc1cnc(NC(=O)c2cc(S(=O)(=O)N3CCOCC3)ccc2N2CCC(F)(F)C2)s1 [Example 36, 2-(3,3-difluoropyrrolidin-1-yl)-N-(5-ethylthiazol-2-yl)-5-(morpholinosulfonyl)benzamide]		137	591		
CCc1cnc(NC(=O)c2cc(S(=O)(=O)N(C)C)ccc2N2CCC(F)(F)C2)s1 [Example 37, 2-(3,3-difluoropyrrolidin-1-yl)-5-(N,N-dimethylsulfamoyl)-N-(5-ethylthiazol-2-yl)benzamide]		126	565		
Cc1nc(NC(=O)c2cc(S(=O)(=O)N3CCOCC3)ccc2N2CCC(F)(F)C2)sc1C [Example 38, 2-(3,3-difluoropyrrolidin-1-yl)-N-(4,5-dimethylthiazol-2-yl)-5-(morpholinosulfonyl)benzamide]		42.8	748		
Cc1cnc(NC(=O)c2cc(S(=O)(=O)N(C)C)ccc2N2CCCC2)s1 [NGI-1, 5-(N,N-Dimethylsulfamoyl)-N-(5-methylthiazol-2-yl)-2-(pyrrolidin-1-yl)benzamide, reference compound]		100	1110		712
